Source: patent US20150133434A1, “Compositions and Methods for Reactivating Latent Immunodeficiency Virus” (priority 2012, published 2015)
“Also recorded” adds a separate entry of the source.

Tests used:
[1] = tested on: latent LTR-Tat-IRES-GFP construct in J-Lat A2 cells; assay: J-Lat A2 cells (LTR-Tat-IRES-GFP), flow cytometry of GFP; assay type: cell-based, HIV-1
Description: HEK293T and Jurkat cells were obtained from the American Type Culture Collection. J-Lat (clones A2 and A72) cell lines were described. HEK293T cells were cultured in DMEM supplemented with 10% FBS, 1% L-glutamine and 1% penicillin-streptomycin (Life Technologies). Jurkat and J-Lat cells were cultured in RPMI supplemented with 10% FBS, 1% L-glutamine, and 1% penicillin-streptomycin. TNFα (Sigma-Aldrich) was used at concentrations of 0.25 or 1 ng/ml. Human αCD3 and αCD28 (BD Biosciences) were used at concentrations of 3 and 1 μg/ml, respectively. Prostratin (Sigma) was used at a suboptimal concentration of 0.5 μM, and SAHA (NCI Chemical Carcinogen Repository, Midwest Research Institute) was used at 2.5 μM.
To determine if BET inhibition specifically activates Tat-dependent transcription, a J-Lat cell line was utilized that harbored a latent lentiviral construct expressing Tat with GFP from the HIV LTR (clone A2; LTR-Tat-IRES-GFP). […] Stimulation with JQ1 yielded up to ninefold more GFP-expressing cells than control-treated cells, and a 22-fold increase was observed when cells were co-treated with JQ1 and low doses of TNFα (FIG. 21A). […] Here, an up to 22-fold increase in GFP^+ cells resulted from JQ1 treatment alone and a 45-fold increase when TNFα was added with JQ1 (FIG. 21B). Both cell lines were also treated with prostratin and SAHA (FIG. 27).
Two latent J-Lat cell lines A2 (containing a LTR-Tat-IRES-GFP construct) or A72 (containing a LTR-GFP construct) were treated with JQ1 or (R)-JQ1 in combination with TNFα or control at the indicated concentrations for 18 h, followed by flow cytometry analysis. […] Data represent average (±SD) of three independent experiments. All treatments in (A) and (B) on the X axis are in μM.

[2] = tested on: latent HIV-1 in Bcl-2-transduced resting CD4+ T cells; assay type: cell-based; conditions: 24-72 h, average of two donors
[3] = tested on: HIV LTR-GFP in J-Lat A72 cells; assay: JQ1 response in A72 cells after shRNA knockdown (cyclin T1, BRD2, BRD4), flow cytometry of GFP; assay type: cell-based
Description: ShRNA-expressing lentiviral vectors were purchased from Open Biosystems. The plasmids TRCN0000006308 and TRCN0000006310 were used to deplete BRD2, plasmids TRCN0000021424 and TRCN0000021428 were used to deplete BRD4, and plasmids TRCN0000013673 and TRCN0000013675 were used to deplete cyclin T1. The pLKO.1 vector containing scramble shRNA was used as control. […]. J-Lat A72 cells (containing a LTR-GFP construct) were spininfected with virus (1 ng of p24 per 10^6 cells) containing shRNAs against BRD2, BRD4, cyclin T1 or nontargeting control shRNAs and were selected with puromycin (2 μg/ml; Sigma) (Naldini L, et al., Science 1996; 272:263-7). After 4 days of selection, cells were treated with the indicated concentration of drugs. The percentage of GFP^+ cells was determined after 18 h using a MACSQuant VYB FACS analyzer (Miltenyi Biotech GmbH). Cell viability was monitored by forward and side scatter analysis. Analysis was conducted on 3×10,000 live cells per condition, and all experiments were independently repeated at least three times. Data were analyzed using FlowJo 9.4 (Tree Star).
As transcription elongation at the HIV promoter uniquely depends on P-TEFb, whether the JQ1 effect in latent cells requires intact P-TEFb was determined. Short hairpin RNAs (shRNAs) directed against cyclin T1, an important component of P-TEFb, were introduced into A72 cells with lentiviral vectors. Knockdown of cyclin T1 yielded lower basal levels in GFP^+ cells than control cells expressing nontargeting shRNAs (FIG. 25A).
To test the functional relevance of BET proteins in HIV latency, lentiviral shRNA knockdown studies of endogenous BRD2 and BRD4 proteins were performed in A72 cells lacking Tat. BRD2 is a close relative of BRD4, but lacks a C-terminal PID domain. […] BRD2 binds JQ1 and other BET inhibitors, albeit with lower binding affinities than BRD4.
(A) A72 cells were infected with virus containing shRNA constructs targeting cyclin T1 or a nontargeting control. Knockdown of cyclin T1 protein levels are shown by immunoblotting with cyclin T1 or the control α-tubulin antibody. At 4 days after infection, cells were treated with JQ1 or DMSO at the indicated concentrations for 18 h and analyzed by flow cytometry. […] Average (±SD) of three experiments is shown. (B) A72 cells were infected with virus containing shRNA constructs targeting BRD2, BRD4 or a nontargeting control. At 4 days after infection, cells were treated with JQ1 or DMSO at the indicated concentrations for 18 h and examined by flow cytometry. […] Results represent average (±SD) of three experiments. Knockdown of BRD2 and BRD4 protein levels were confirmed by immunoblotting with BRD2 and BRD4 antibodies or the control α-tubulin. All treatments in (A) and (B) on the X axis are in μM.

**Q.** For `Cc1sc2c(c1C)C(c1ccc(Cl)cc1)=N[C@@H](CC(=O)OC(C)(C)C)c1nnc(C)n1-2` [JQ1, tert-Butyl 2-((6S)-4-(4-chlorophenyl)-2,3,9-trimethyl-6H-thieno[3,2-f][1,2,4]triazolo[4,3-a][1,4]diazepin-6-yl)acetate], which “activation of HIV transcription (GFP)” value ([1]; 18 h) is on record?
**A.** activated HIV transcription in a dose-dependent manner; also recorded: reactivated HIV-1 in a dose-dependent manner; also recorded: increased GFP expression

**Q.** What about the “effect of adding SAHA to JQ1” value ([1]; FIG. 27) of the same molecule?
**A.** only a very modest increase

**Q.** What about the “effect of adding prostratin to JQ1” value ([1]; FIG. 27) of the same molecule?
**A.** enhanced the JQ1 effect

**Q.** And the “GFP-expressing cells relative to control-treated cells” value ([1]; JQ1 alone)?
**A.** up to ninefold

**Q.** What about the “increase in GFP-expressing cells” value ([1]; JQ1 with low doses of TNFα) of the same molecule?
**A.** 22 fold

**Q.** And the “reactivation of latent HIV-1 relative to costimulation with αCD3 and αCD28 antibodies” value [2]?
**A.** ~14%

**Q.** What about the “activation of the HIV LTR in response to JQ1” value ([3]; BRD2 knockdown cells) of the same molecule?
**A.** twofold

**Q.** And the “response to JQ1” value ([3]; BRD4 knockdown cells)?
**A.** not affected

**Q.** What about the “activation of the HIV LTR in response to JQ1” value ([3]; control cells (nontargeting shRNA)) of the same molecule?
**A.** 3.3 fold

**Q.** And the “cells responding with GFP expression to JQ1, relative to control cells” value ([3]; cyclin T1 knockdown cells)?
**A.** half as many cells responded
